Results on eleven molecules are retold here after patent US11767323B2, “Tricyclic pyridone compounds as JAK2 V617F inhibitors” (Incyte Corporation, priority 2020, dated 2023).

Bounds are passed on as bounds.

Assay [1] addresses catalytic domain (JH1, amino acids 826-1132) of human JAK2 (Homo sapiens (Human), UniProt O60674). Kind of assay: JAK2 LanthaScreen JH1 Binding Assay. The settings on record: JAK2 JH1 1.5 nM, 50 nM tracer, 2 hours at 25° C.; read-out: JH1 BIND IC50. As to the method: Example A. JAK2 LanthaScreen JH1 Binding Assay
JAK2 JH1 binding assay utilizes catalytic domain (JH1, amino acids 826-1132) of human JAK2 expressed as N-terminal FLAG-tagged, biotinylated protein in a baculovirus expression system (Carna Biosciences, Product #08-445-20N). The assay was conducted in black 384-well polystyrene plates in a final reaction volume of 20 μL. JAK2 JH1 (1.5 nM) was incubated with compounds (100 nL serially diluted in DMSO) in the presence of 50 nM Fluorescent JAK2-JH1 Tracer and 0.5 nM Streptavidin-Tb cryptate (Cisbio Part #610SATLB) in assay buffer (50 mM Tris, pH=7.5, 10 mM MgCl2, 0.01% Brij-35, 0.1% BSA, 1 mM EGTA, 5% Glycerol and 5 mM DTT). Non-specific binding was accessed in the presence of 2 mM ATP. After incubation for 2 hours at 25° C., LanthaScreen signals were read on a PHERAstar FS plate reader (BMG LABTECH). Data was analyzed with IDBS XLfit and GraphPad Prism 5.0 software using a four parameter dose response curve to determine IC50 for each compound.
(In general: TR-FRET usually uses a lanthanide donor and a delayed reading to cut background.)

The target in assay [2] is pseudo-kinase domain (JH2, amino-acids 536-812) of human Wild Type JAK2 (Homo sapiens (Human), UniProt O60674, F794H/W659A/W777A). Kind of assay: JAK2 LanthaScreen JH2-WT Binding Assay. The settings on record: JAK2 JH2-WT 0.145 nM, 50 nM tracer, 1 hour at 25° C.; read-out: JH2 BIND WT IC50. The method, then: Example B. JAK2 LanthaScreen JH2-WT Binding Assay
Sequence of pseudo-kinase domain (JH2, amino-acids 536-812) of human Wild Type JAK2 (O60674 536-812 W659A/W777A/F794H): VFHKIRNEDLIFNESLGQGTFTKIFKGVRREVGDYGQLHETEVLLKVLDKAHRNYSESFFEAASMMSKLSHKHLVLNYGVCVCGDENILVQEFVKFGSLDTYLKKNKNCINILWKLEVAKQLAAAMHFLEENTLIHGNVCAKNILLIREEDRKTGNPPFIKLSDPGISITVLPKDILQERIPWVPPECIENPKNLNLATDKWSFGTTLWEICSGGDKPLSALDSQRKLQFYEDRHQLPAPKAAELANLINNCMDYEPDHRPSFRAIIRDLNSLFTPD
(§1) JAK2 JH2-WT binding assay utilizes pseudo-kinase domain (JH2, amino-acids 536-812 with 3 surface mutations W659A, W777A, F794H) of human Wild Type JAK2 expressed as C-terminal His-Avi-tagged, biotinylated protein in a baculovirus expression system (BPS Bioscience, Catalog #79463). The assay was conducted in black 384-well polystyrene plates in a final reaction volume of 20 μL. JAK2 JH2-WT (0.145 nM) was incubated with compounds (100 nL serially diluted in DMSO) in the presence of 50 nM Fluorescent JAK2-JH2 Tracer (MedChem Express Catalog #HY-102055) and 0.25 nM Streptavidin-Tb cryptate (Cisbio Part #610SATLB) in assay buffer (50 mM Tris, pH=7.5, 10 mM MgCl2, 0.01% Brij-35, 0.1% BSA, 1 mM EGTA, 5% Glycerol and 5 mM DTT). Non-specific binding was accessed in the presence of 2 mM ATP. After incubation for 1 hour at 25° C., LanthaScreen signals were read on a PHERAstar FS plate reader (BMG LAB TECH). Data was analyzed with IDBS XLfit and GraphPad Prism 5.0 software using a four parameter dose response curve to determine IC50 for each compound.

Assay [3] addresses catalytic domain (JH1, amino acids 808-1132) of human JAK2 (Homo sapiens (Human), UniProt O60674). As to the kind of experiment: JAK2 HTRF Enzyme Activity Assay. The settings on record: JAK2 0.015 nM, ATP (30 μM or 1 mM), 60 minutes at 25° C. The format is biochemical. As to the method: Example D. JAK2 HTRF Enzyme Activity Assay
JAK2 enzyme activity assays utilize catalytic domain (JH1, amino acids 808-1132) of human JAK2 expressed as N-terminal His-tagged protein in a baculovirus expression system (BPS Bioscience, Catalog #40450). The assays was conducted in black 384-well polystyrene plates in a final reaction volume of 20 μL. JAK2 (0.015 nM) was incubated with compounds (100 nL serially diluted in DMSO) in the presence of ATP (30 μM or 1 mM) and 500 nM Biotin-labeled EQEDEPEGDYFEWLE (SEQ ID NO.: 1) peptide (BioSource International, custom synthesis) in assay buffer (50 mM Tris, pH=7.5, 10 mM MgCl2, 0.01% Brij-35, 0.1% BSA, 1 mM EGTA, 5% Glycerol and 5 mM DTT) for 60 minutes at 25° C. The reactions were stopped by the addition of 10 μL of detection buffer (50 mM Tris, pH 7.8, 0.5 mg/mL BSA, 150 mM NaCl), supplemented with EDTA, LANCE Eu-W1024 anti-phosphotyrosine (PY20), (PerkinElmer, Catalog #AD0067) and Streptavidin SureLight APC (PerkinElmer Catalog #CR130-100), for a final concentration of 15 mM, 1.5 nM and 75 nM, respectively. HTRF signals were read after 30 minutes incubation at room temperature on a PHERAstar FS plate reader (BMG LAB TECH). Data was analyzed with IDBS XLfit and GraphPad Prism 5.0 software using a four parameter dose response curve to determine IC50 for each compound.

Assay [4] addresses pseudo-kinase domain (JH2, amino-acids 536-812) of human V617F mutant JAK2 (Homo sapiens (Human), UniProt O60674, F794H/V617F/W659A/W777A). As to the kind of experiment: JAK2 LanthaScreen JH2-V617F Binding Assay. The settings on record: JAK2 JH2-V617F 0.26 nM, 50 nM tracer, 1 hour at 25° C.; read-out: JH2 BIND V617F IC50. The method, then:
Example C. JAK2 LanthaScreen JH2-V617F Binding Assay
as §1, with “JH2-V617F” for “JH2-WT”, “V617F mutant” for “Wild Type”, “#79498).” for “#79463).”, “JH2-V617F (0.26” for “JH2-WT (0.145”, “LABTECH).” for “LAB TECH).”

Sequence of catalytic domain (JH1, amino acids 826-1132) of human JAK2 (O60674 826-1132): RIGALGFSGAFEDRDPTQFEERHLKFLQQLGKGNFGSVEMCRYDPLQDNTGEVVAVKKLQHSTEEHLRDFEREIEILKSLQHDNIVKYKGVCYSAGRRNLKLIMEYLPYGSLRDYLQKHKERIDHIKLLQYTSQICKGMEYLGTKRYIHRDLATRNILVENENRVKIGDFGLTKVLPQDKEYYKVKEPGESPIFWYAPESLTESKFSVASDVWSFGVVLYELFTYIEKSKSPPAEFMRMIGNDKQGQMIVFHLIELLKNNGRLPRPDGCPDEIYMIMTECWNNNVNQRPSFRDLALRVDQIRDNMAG
Sequence of catalytic domain (JH1, amino acids 808-1132) of human JAK2 (O60674 808-1132): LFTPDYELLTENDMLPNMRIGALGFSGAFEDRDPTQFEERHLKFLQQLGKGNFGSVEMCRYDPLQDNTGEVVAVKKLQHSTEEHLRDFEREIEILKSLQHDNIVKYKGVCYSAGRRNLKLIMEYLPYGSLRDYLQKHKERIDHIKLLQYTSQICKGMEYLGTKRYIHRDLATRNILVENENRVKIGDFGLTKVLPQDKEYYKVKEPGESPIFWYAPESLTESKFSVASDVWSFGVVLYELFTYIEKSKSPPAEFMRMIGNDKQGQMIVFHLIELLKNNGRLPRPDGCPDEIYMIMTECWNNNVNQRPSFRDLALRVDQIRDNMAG
Sequence of pseudo-kinase domain (JH2, amino-acids 536-812) of human V617F mutant JAK2 (O60674 536-812 V617F/W659A/W777A/F794H): as the sequence (O60674 536-812 W659A/W777A/F794H) above, with V82F counted along it

As for `Cc1cc(-c2c(C3CCOCC3)c3c4cc(-c5ccc(CN6CCC(S(C)(=O)=O)CC6)cc5)[nH]c4ncc3n(C)c2=O)on1` [Example 21, 6-Methyl-8-(3-methylisoxazol-5-yl)-2-(4-((4-(methylsulfonyl)piperidin-1-yl)methyl)phenyl)-9-(tetrahydro-2H-pyran-4-yl)-3,6-dihydro-7H-pyrrolo[3,2-f][1,7]naphthyridin-7-one], the IC50 in assay [1] was 0.1 to 0.5 µM; in assay [2] it was no more than 0.1 µM; in assay [3] it was 0.1 to 0.5 µM; in assay [4], no more than 0.1 µM.

Take `Cc1c(-c2ccc(-n3cnnn3)cc2)c(=O)[nH]c2cnc3[nH]c(-c4ccc(CN5CCC(S(C)(=O)=O)CC5)cc4)cc3c12` [Example 7, 8-(4-(1H-Tetrazol-1-yl)phenyl)-9-methyl-2-(4-((4-(methylsulfonyl)piperidin-1-yl)methyl)phenyl)-3,6-dihydro-7H-pyrrolo[3,2-f][1,7]naphthyridin-7-one]: the IC50 in assay [1] was 1 to 10 µM; in assay [2], 0.1 to 0.5 µM; in assay [3], 1 to 10 µM; in assay [4], 1 to 10 µM.

As for `COCc1ccc(-c2c(-c3cc(C)no3)c(=O)n(C)c3cnc4[nH]c(-c5cnn(C)c5)cc4c23)cc1` [Example 27, 9-(4-(Methoxymethyl)phenyl)-6-methyl-2-(1-methyl-1H-pyrazol-4-yl)-8-(3-methylisoxazol-5-yl)-3,6-dihydro-7H-pyrrolo[3,2-f][1,7]naphthyridin-7-one], the IC50 in assay [1] is 0.1 to 0.5 µM; in assay [2] it was no more than 0.1 µM; in assay [3] it was 0.1 to 0.5 µM; in assay [4], no more than 0.1 µM.

With `COC1CCC(c2c(-c3cc(C)no3)c(=O)n(C)c3cnc4[nH]c(-c5cnn(C)c5)cc4c23)CC1` (centres unmarked) [Example 22, 9-(4-Methoxycyclohexyl)-6-methyl-2-(1-methyl-1H-pyrazol-4-yl)-8-(3-methylisoxazol-5-yl)-3,6-dihydro-7H-pyrrolo[3,2-f][1,7]naphthyridin-7-one], the IC50 in assay [1] is 0.1 to 0.5 µM; in assay [2], no more than 0.1 µM; in assay [3] it was 0.1 to 0.5 µM; in assay [4], no more than 0.1 µM.

`Cc1ccc(-c2c(C)c3c4cc(-c5ccc(CN6CCC(S(C)(=O)=O)CC6)cc5)[nH]c4ncc3n(C)c2=O)cc1` [Example 9, 6,9-Dimethyl-2-(4-((4-(methylsulfonyl)piperidin-1-yl)methyl)phenyl)-8-(p-tolyl)-3,6-dihydro-7H-pyrrolo[3,2-f][1,7]naphthyridin-7-one]: the IC50 in assay [1], in assay [2], in assay [3] and in assay [4] was no more than 0.1 µM throughout.

Consider `Cc1c(-c2ccc([N+](=O)[O-])cc2)c(=O)[nH]c2cnc3[nH]c(-c4ccc(CN5CCC(S(C)(=O)=O)CC5)cc4)cc3c12` [Example 18, 9-Methyl-2-(4-((4-(methylsulfonyl)piperidin-1-yl)methyl)phenyl)-8-(4-nitrophenyl)-3,6-dihydro-7H-pyrrolo[3,2-f][1,7]naphthyridin-7-one], for which the IC50 was 1 to 10 µM in assay [1], 0.5 to 1 µM in assay [2], 1 to 10 µM in assay [3] and 1 to 10 µM in assay [4].

For the molecule `COc1ccc(-c2c(C)c3c4cc(-c5ccc(CN6CCC(S(C)(=O)=O)CC6)cc5)[nH]c4ncc3n(C)c2=O)cc1` [Example 12, 8-(4-Methoxyphenyl)-6,9-dimethyl-2-(4-((4-(methylsulfonyl)piperidin-1-yl)methyl)phenyl)-3,6-dihydro-7H-pyrrolo[3,2-f][1,7]naphthyridin-7-one], the IC50 in assay [1] is 0.1 to 0.5 µM; in assay [2], no more than 0.1 µM; in assay [3], no more than 0.1 µM; in assay [4], no more than 0.1 µM.

On to `CN(C)C(=O)c1ccc(-c2c(-c3cnn(C)c3)[nH]c3ncc4c(cc(N5CCC(S(C)(=O)=O)CC5)c(=O)n4C)c23)cc1` [Example 39, N,N-dimethyl-4-(6-methyl-2-(1-methyl-1H-pyrazol-4-yl)-8-(4-(methylsulfonyl)piperidin-1-yl)-7-oxo-6,7-dihydro-3H-pyrrolo[3,2-f][1,7]naphthyridin-1-yl)benzamide], for which the IC50 in assay [1] is 0.1 to 0.5 µM; in assay [2], no more than 0.1 µM; in assay [3], 0.1 to 0.5 µM; in assay [4] it was no more than 0.1 µM.

Consider `CN(C)C(=O)c1ccc(-c2c(-c3cnn(C)c3)[nH]c3ncc4c(cc(N5CCC6(CCOC6)CC5)c(=O)n4C)c23)cc1` [Example 41, N,N-dimethyl-4-(6-methyl-2-(1-methyl-1H-pyrazol-4-yl)-7-oxo-8-(2-oxa-8-azaspiro[4.5]decan-8-yl)-6,7-dihydro-3H-pyrrolo[3,2-f][1,7]naphthyridin-1-yl)benzamide], for which the IC50 in assay [1] is 1 to 10 µM; in assay [2], 0.1 to 0.5 µM; in assay [3], 1 to 10 µM; in assay [4] it was 0.5 to 1 µM.

Consider `CS(=O)(=O)C1CCN(Cc2ccc(-c3cc4c(ncc5[nH]c(=O)c(C#N)cc54)[nH]3)cc2)CC1` [Example 3, 2-(4-((4-(Methylsulfonyl)piperidin-1-yl)methyl)phenyl)-7-oxo-6,7-dihydro-3H-pyrrolo[3,2-f][1,7]naphthyridine-8-carbonitrile], for which the IC50 in assay [1] was greater than 10 µM; in assay [2], 1 to 10 µM; in assay [3], greater than 10 µM; in assay [4], 1 to 10 µM.

For the molecule `COCCN(C)c1ccc(-c2c(-c3cc(C)no3)c(=O)n(C)c3cnc4[nH]c(-c5cnn(C)c5)cc4c23)cc1` [Example 29, 9-(4-((2-Methoxyethyl)(methyl)amino)phenyl)-6-methyl-2-(1-methyl-1H-pyrazol-4-yl)-8-(3-methylisoxazol-5-yl)-3,6-dihydro-7H-pyrrolo[3,2-f][1,7]naphthyridin-7-one], the IC50 in assay [1] was 0.1 to 0.5 µM; in assay [2], no more than 0.1 µM; in assay [3], 0.1 to 0.5 µM; in assay [4] it was no more than 0.1 µM.

A word on the IC50: it is the concentration that inhibits the measured activity by half.
